Experimental data published in patent US7893199B2, “Peptides having neutrophil-stimulating activity” (National University Corporation Gunma University, priority 2006, dated 2011).
Where no end group is shown, it is not given here.

What was measured:
[1] = biological target: T1, heat shock 70 kDa protein 8 isoform 1 (SEQ ID NO: 52) (Homo sapiens, UniProt P11142); assay: chemical crosslinking experiment, streptavidin beads, electrophoresis (receptor identification); assay type: binding; conditions: differentiated HL-60 cells
T1 construct: endogenous in cells; host or cells: neutrophil-like differentiated HL-60 cells
T1 sequence (P11142 whole entry, canonical isoform): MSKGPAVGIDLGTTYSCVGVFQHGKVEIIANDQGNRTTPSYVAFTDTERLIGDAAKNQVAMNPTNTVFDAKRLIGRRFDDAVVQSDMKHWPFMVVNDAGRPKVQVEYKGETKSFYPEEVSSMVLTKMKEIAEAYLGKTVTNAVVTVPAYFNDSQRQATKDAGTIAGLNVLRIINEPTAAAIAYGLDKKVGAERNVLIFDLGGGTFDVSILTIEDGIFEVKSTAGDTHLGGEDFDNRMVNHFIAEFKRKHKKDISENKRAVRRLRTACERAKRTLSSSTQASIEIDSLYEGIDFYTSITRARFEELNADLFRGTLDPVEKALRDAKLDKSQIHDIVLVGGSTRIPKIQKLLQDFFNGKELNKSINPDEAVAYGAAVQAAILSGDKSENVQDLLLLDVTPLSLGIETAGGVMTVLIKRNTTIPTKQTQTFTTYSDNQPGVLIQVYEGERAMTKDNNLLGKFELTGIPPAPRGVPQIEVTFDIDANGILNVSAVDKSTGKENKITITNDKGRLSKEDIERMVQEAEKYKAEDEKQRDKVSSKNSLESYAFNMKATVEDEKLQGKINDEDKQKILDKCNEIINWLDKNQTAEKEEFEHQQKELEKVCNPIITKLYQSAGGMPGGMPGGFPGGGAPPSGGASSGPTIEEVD
Protocol: Then, in order to identify directly the receptor molecules to which these functional peptides are bound, the following chemical crosslinking experiment was performed. That is, the HL-60 cells differentiated into the neutrophil-like cells were suspended in HBHS (not containing 0.1% BSA). The suspension was centrifuged (1,000 rpm, 5 minutes, 4° C.) and the supernatant was removed. The cells were suspended again in the HBHS not containing BSA so as to have the cell density of 5.6×10^6 cells/ml. The obtained cell suspension was preincubated at 37° C. for 10 minutes at first, and 1/10 volume of mitocryptide-3 and -5, [Cys^0]mitocryptide-3, [Cys^0]mitocryptide-5, [Cys^24]mitocryptide-3, and peptides obtained by introducing biotin into the N terminals thereof (N-biotinyl-mitocryptide-3, N-biotinyl-mitocryptide-5, N-biotinyl-[Cys^0]mitocryptide-3, N-biotinyl-[Cys^0]mitocryptide-5, and N-biotinyl-[Cys^24]mitocryptide-3) were added to have the final concentration of 10 μM, followed by incubation at 37° C. for 30 minutes. After that, the cell suspension was centrifuged (5,000 rpm, 4° C., 1 minute) and the supernatant was removed. The resultant cells were resuspended in HBHS not containing BSA and centrifuged again to wash the cells. 1 ml of a buffer for dissolving cells (100 mM NaCl, 20 mM Tris-HCl, 1 mM EDTA, 77.5 mTIU/ml aprotinin, 1 μM leupeptin, 1 μg/ml pepstatin A, 1 μg/ml phosphoramidone, 1% CHAPS, pH 7.5) with respect to 1 ml of the original cell suspension was added to the cell precipitate, and the mixture was incubated at 4° C. for 30 minutes to dissolve the cells, thereby a cell lysate was prepared. The cell lysate was centrifuged (15,000 rpm, 4° C., 15 minutes) and the supernatant was centrifuged again in the same condition. The obtained supernatant was incubated with streptavidin beads at 4° C. for 30 minutes, then, the beads were washed by centrifugation with the buffer for dissolving cells three times. Further, the beads were treated by heat at 100° C. for 10 minutes in the buffer for dissolving cells, and the mixture was centrifuged. The obtained supernatant was subjected to an SDS gel electrophoresis to separate the contained protein. Then, the gel was stained by silver stain method, thereby the proteins were analyzed. […] As a result, two specific spots were detected (FIG. 15-A). Therefore, the protein was extracted and degraded with trypsin, and then, the degraded proteins were analyzed by mass spectrometry.

bovine Gi1-G protein = biological target: T2, bovine Gi1-G protein (Bos taurus, UniProt P63097); assay: G protein activation ability (GTP hydrolysis) with purified Gi1; assay type: biochemical
T2 construct: made in house; host or cells: E. coli
T2 sequence (P63097 whole entry): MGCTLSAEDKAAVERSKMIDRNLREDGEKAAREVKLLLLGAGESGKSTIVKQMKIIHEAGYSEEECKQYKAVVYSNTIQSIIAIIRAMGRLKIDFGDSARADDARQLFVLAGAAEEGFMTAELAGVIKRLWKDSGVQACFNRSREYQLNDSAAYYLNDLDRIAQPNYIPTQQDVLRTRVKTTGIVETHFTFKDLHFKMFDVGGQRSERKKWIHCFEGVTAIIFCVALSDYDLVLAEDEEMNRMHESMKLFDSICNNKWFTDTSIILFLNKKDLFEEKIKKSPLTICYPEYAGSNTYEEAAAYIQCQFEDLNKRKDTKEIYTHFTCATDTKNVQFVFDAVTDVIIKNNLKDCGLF

[2] = test system: differentiated HL-60 cells; assay: migration activity (Chemotaxis Index) of differentiated HL-60 cells; assay type: cell-based, human
Protocol: (3) Measurement of Migration Activity
The cells were collected by centrifuging the suspension of the differentiated HL-60 cells (1,000 rpm, 5 minutes, 4° C.). After that, the following operation was repeated three times to wash the cells: 10% FBS-RPMI1640 was added to the cells; the mixture was suspended by inversion; and the mixture was centrifuged again (1,000 rpm, 5 minutes, 4° C.). Then, a medium (10% FBS-RPMI1640) was added so that a cell density was 4×10^6 cells/ml, thereby a cell suspension was prepared. Subsequently, 1 ml of each peptide solution (dissolved in 10% FBS-RPMI 1640) was transferred to each well of a 24-well plate, and the plate was incubated at 37° C. for 20 minutes. After that, 500 μl of the cell suspension (2×10^6 cells) were put in Chemotaxicell (KURABO […] LTD., 3 μm) and the Chemotaxicell was set in a plate, followed by incubation in the presence of 5% CO2 at 37° C. for 1 hour. Then, the Chemotaxicell was removed and the solution in each well of the plate was pipetted. The cells migrated to the plate side was suspended well and the number of the cells were measured. Note that the migration activity by the peptide was represented by a ratio of the number of the cells to the number of the cells passing the Chemotaxicell at the time of non-stimulation (Chemotaxis Index, CI).

- competition for binding of the protein to N-biotinyl-[Cys^0]mitocryptide-5 [1]: competitive
- activation of purified Gi1 protein (bovine Gi1-G protein): activated
Sequence: MLWNLLALHQIGQRTISTASHRH [No. 019]
- concentration of migration activity compared with that of β-hexosaminidase-secreting activity [2]: confirmed at the concentration lower than the concentration at which β-hexosaminidase-secreting activity was confirmed
- desensitization of migration activity with increasing concentration of the peptide [2]: subjected to desensitization completely
